Patent US9012461B2, “FAK inhibitors” (priority 2011, dated 2015)

What was measured:
[1] = test system: MDA-231-LNA cells; conditions: 3 days
[2] = test system: HeyA8, SKOV3ip1, and HeyA8-MDR models; conditions: compared with vehicle-treated controls; cited from earlier work
[3] = test system: taxane-sensitive (SKOV3ip1 and HeyA8) and taxane-resistant (HeyA8-MDR) ovarian cancer cell lines; conditions: in vitro; cited from earlier work
[4] = test system: MDA-231-LNA primary tumours; experiment: Combination study, MDA-231-LNA orthotopic xenograft model; format: in vivo, Balb/c SCID mice; conditions: Avastin 12.5 mg/kg i.p. twice weekly; compound 16 (citrate salt) p.o. 54 mg/kg BID
Description: Mice harvested for tumour immunohistochemical analysis were not included in Kaplan-Meier analysis.
All bars represent the mean±S.E.M of n=7 mice per group. *p<0.05 and **p<0.01 by one-way ANOVA.

Compound | IC50 [1] [µM] | also measured
NC(=O)Cc1cccnc1CCc1nc(Nc2ccc(C3CCNCC3)cc2)ncc1C(F)(F)F [Compound 32, 2-(2-(2-(2-((4-(Piperidin-4-yl)phenyl)amino)-5-(trifluoromethyl)pyrimidin-4-yl)ethyl)pyridin-3-yl)acetamide] | > 5 | 
NC(=O)Cc1ccccc1CCc1nc(Nc2ccc(C3CCNC3)cc2)ncc1C(F)(F)F (stereo not drawn) [Compound 35, 2-(2-(2-(2-((4-(pyrrolidin-3-yl)phenyl)amino)-5-(trifluoromethyl)pyrimidin-4-yl)ethyl)phenyl)acetamide] | > 10 | 
CCN1CCC(c2ccc(Nc3ncc(C(F)(F)F)c(CCc4ncccc4CC(N)=O)n3)cc2)CC1 [Compound 38, 2-(2-(2-(2-((4-(1-Ethylpiperidin-4-yl)phenyl)amino)-5-(trifluoromethyl)pyrimidin-4-yl)ethyl)pyridin-3-yl)acetamide] | > 10 | 
CNC(=O)c1ccccc1Nc1nc(Nc2ccc(N3CCOCC3)cc2OC)ncc1Cl [TAE226] |  | reduction of tumour burden [2]: 46-64%; phosphorylation of FAK [3]: inhibited the phosphorylation of FAK at both Y397 and Y861 sites
Avastin |  | median survival time [4]: 24 days
